Measured values reported in US6355799B1, “Substituted benzene compounds, process for their preparation, and herbicidal and defoliant compositions containing them” (ISK Americas Incorporated, priority 1997, dated 2002).

How the values were obtained:
Assay type in all cases: in vivo
[1] = system: redroot pigweed (Amaranthus retroflexus, AMARE); assay: Pre-emerge test, greenhouse herbicide activity screening; details: pre-emerge, rated 14 days after application, 0 = no damage, 100 = complete death
Method in brief: (§1)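 Compounds in acetone were track-sprayed at 187 l/ha, 15–1000 g ai/ha, onto sandy loam pots. Pre-emerge seeds were sown one day before spraying, with surface watering afterwards. Post-emerge plants were at the 2–3 leaf stage and sprayed with 0.25% v/v non-ionic surfactant. Injury was rated 0–100 at 14 days.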

[2] = system: barnyardgrass (Echinochloa crus-galli, ECHCG); assay: as above; details: pre-emerge, rated 14 days after application, 0 = no damage, 100 = complete death
Method in brief: (§2)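 Fourteen days after spraying, crop and weed injury was graded visually from 0, no effect, to 100, every plant dead. Test substances were dissolved in acetone and applied at 15–1000 g ai/ha with a flat-fan nozzle. Application was either pre-emergence, one day after sowing, or post-emergence at the 2–3 leaf stage.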

[3] = system: green foxtail (Setaria viridis, SETVI); assay: as above; details: pre-emerge, rated 14 days after application, 0 = no damage, 100 = complete death
Method in brief: as §2

[4] = system: ivyleaf morningglory (Ipomoea hederacea, IPOHE); assay: as above; details: pre-emerge, rated 14 days after application, 0 = no damage, 100 = complete death
Method in brief: as §2

[5] = system: johnsongrass (Sorghum halepense, SORHA); assay: as above; details: pre-emerge, rated 14 days after application, 0 = no damage, 100 = complete death
Method in brief: as §2

[6] = system: lambsquarters (Chenopodium album, CHEAL); assay: as above; details: pre-emerge, rated 14 days after application, 0 = no damage, 100 = complete death
Method in brief: as §2

[7] = system: large crabgrass (Digitaria sanguinalis, DIGSA); assay: as above; details: pre-emerge, rated 14 days after application, 0 = no damage, 100 = complete death
Method in brief: as §2

[8] = system: sicklepod (Cassia obtusifolia, CASOB); assay: as above; details: pre-emerge, rated 14 days after application, 0 = no damage, 100 = complete death
Method in brief: as §2

[9] = system: velvetleaf (Abutilon theophrasti, ABUTH); assay: as above; details: pre-emerge, rated 14 days after application, 0 = no damage, 100 = complete death
Method in brief: as §2

[10] = system: field corn (Zea mays L., var. Dekalb 535, CORN); assay: Pre-emerge test, crop safety; details: pre-emerge, rated 14 days after application, 0 = no damage, 100 = complete death
Method in brief: as §1

[11] = system: upland rice (Oryza sp., var. Tebonnet, RICE); assay: Pre-emerge test, crop safety; details: pre-emerge, rated 14 days after application, 0 = no damage, 100 = complete death
Method in brief: as §1

[12] = system: barnyardgrass (Echinochloa crus-galli, ECHCG); assay: Post-emerge test, greenhouse herbicide activity screening; details: phytotoxicity rating 0-100 (0 no damage, 100 complete death), 14 days after application
Method in brief: (§3)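 Herbicidal damage is scored 0 (none) to 100 (complete plant death) two weeks after a simulated field spray. Rates span 15–1000 g ai/ha, delivered in acetone at 187 l/ha. For post-emergence treatments, plants have 2–3 leaves and the spray carries 0.25% v/v non-ionic surfactant.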

[13] = system: green foxtail (Setaria viridis, SETVI); assay: as above; details: phytotoxicity rating 0-100 (0 no damage, 100 complete death), 14 days after application
Method in brief: as §3

[14] = system: ivyleaf morningglory (Ipomoea hederacea, IPOHE); assay: as above; details: phytotoxicity rating 0-100 (0 no damage, 100 complete death), 14 days after application
Method in brief: as §3

[15] = system: johnsongrass (Sorghum halepense, SORHA); assay: as above; details: phytotoxicity rating 0-100 (0 no damage, 100 complete death), 14 days after application
Method in brief: as §3

[16] = system: lambsquarters (Chenopodium album, CHEAL); assay: as above; details: phytotoxicity rating 0-100 (0 no damage, 100 complete death), 14 days after application
Method in brief: as §3

[17] = system: large crabgrass (Digitaria sanguinalis, DIGSA); assay: as above; details: phytotoxicity rating 0-100 (0 no damage, 100 complete death), 14 days after application
Method in brief: as §3

[18] = system: redroot pigweed (Amaranthus retroflexus, AMARE); assay: as above; details: phytotoxicity rating 0-100 (0 no damage, 100 complete death), 14 days after application
Method in brief: as §3

[19] = system: velvetleaf (Abutilon theophrasti, ABUTH); assay: as above; details: phytotoxicity rating 0-100 (0 no damage, 100 complete death), 14 days after application
Method in brief: as §3

[20] = system: field corn (Zea mays L., var. Dekalb 535, CORN); assay: Post-emerge test, crop safety; details: phytotoxicity rating 0-100 (0 no damage, 100 complete death), 14 days after application
Method in brief: as §2

[21] = system: upland rice (Oryza sp., var. Tebonnet, RICE); assay: Post-emerge test, crop safety; details: phytotoxicity rating 0-100 (0 no damage, 100 complete death), 14 days after application
Method in brief: as §2

SMILES: C=Cc1ccc(C(=O)Nc2c(OC)c(Cl)cc(F)c2-n2c(=O)cc(C(F)(F)F)n(C)c2=O)cc1 [2-31]
- Pre-emerge Herbicidal Activity AMARE (phytotoxicity rating, scale 0-100) ([1]; 63 g ai/ha): 100
- Pre-emerge Herbicidal Activity AMARE (phytotoxicity rating, scale 0-100) ([1]; 250 g ai/ha): 100
- Pre-emerge Herbicidal Activity ECHCG (phytotoxicity rating, scale 0-100) ([2]; 63 g ai/ha): 40
- Pre-emerge Herbicidal Activity ECHCG (phytotoxicity rating, scale 0-100) ([2]; 250 g ai/ha): 100
- Pre-emerge Herbicidal Activity SETVI (phytotoxicity rating, scale 0-100) ([3]; 63 g ai/ha): 100
- Pre-emerge Herbicidal Activity SETVI (phytotoxicity rating, scale 0-100) ([3]; 250 g ai/ha): 100
- Pre-emerge Herbicidal Activity IPOHE (phytotoxicity rating, scale 0-100) ([4]; 63 g ai/ha): 100
- Pre-emerge Herbicidal Activity IPOHE (phytotoxicity rating, scale 0-100) ([4]; 250 g ai/ha): 100
- Pre-emerge Herbicidal Activity SORHA (phytotoxicity rating, scale 0-100) ([5]; 63 g ai/ha): 60
- Pre-emerge Herbicidal Activity SORHA (phytotoxicity rating, scale 0-100) ([5]; 250 g ai/ha): 85
- Pre-emerge Herbicidal Activity CHEAL (phytotoxicity rating, scale 0-100) ([6]; 63 g ai/ha): 100
- Pre-emerge Herbicidal Activity CHEAL (phytotoxicity rating, scale 0-100) ([6]; 250 g ai/ha): 100
- Pre-emerge Herbicidal Activity DIGSA (phytotoxicity rating, scale 0-100) ([7]; 63 g ai/ha): 90
- Pre-emerge Herbicidal Activity DIGSA (phytotoxicity rating, scale 0-100) ([7]; 250 g ai/ha): 100
- Pre-emerge Herbicidal Activity CASOB (phytotoxicity rating, scale 0-100) ([8]; 63 g ai/ha): 100
- Pre-emerge Herbicidal Activity CASOB (phytotoxicity rating, scale 0-100) ([8]; 250 g ai/ha): 100
- Pre-emerge Herbicidal Activity ABUTH (phytotoxicity rating, scale 0-100) ([9]; 63 g ai/ha): 100
- Pre-emerge Herbicidal Activity ABUTH (phytotoxicity rating, scale 0-100) ([9]; 250 g ai/ha): 100
- Pre-emerge crop damage CORN (phytotoxicity rating, scale 0-100) ([10]; 63 g ai/ha): 20
- Pre-emerge crop damage CORN (phytotoxicity rating, scale 0-100) ([10]; 250 g ai/ha): 40
- Pre-emerge crop damage RICE (phytotoxicity rating, scale 0-100) ([11]; 63 g ai/ha): 40
- Pre-emerge crop damage RICE (phytotoxicity rating, scale 0-100) ([11]; 250 g ai/ha): 90
- Post-emerge Herbicidal Activity ECHCG ([12]; 63 g ai/ha): 10
- Post-emerge Herbicidal Activity ECHCG ([12]; 250 g ai/ha): 40
- Post-emerge Herbicidal Activity SETVI ([13]; 63 g ai/ha): 10
- Post-emerge Herbicidal Activity SETVI ([13]; 250 g ai/ha): 20
- Post-emerge Herbicidal Activity IPOHE ([14]; 63 g ai/ha): 90
- Post-emerge Herbicidal Activity IPOHE ([14]; 250 g ai/ha): 100
- Post-emerge Herbicidal Activity SORHA ([15]; 63 g ai/ha): 10
- Post-emerge Herbicidal Activity SORHA ([15]; 250 g ai/ha): 30
- Post-emerge Herbicidal Activity CHEAL ([16]; 63 g ai/ha): 80
- Post-emerge Herbicidal Activity CHEAL ([16]; 250 g ai/ha): 95
- Post-emerge Herbicidal Activity DIGSA ([17]; 63 g ai/ha): 0
- Post-emerge Herbicidal Activity DIGSA ([17]; 250 g ai/ha): 20
- Post-emerge Herbicidal Activity AMARE ([18]; 63 g ai/ha): 100
- Post-emerge Herbicidal Activity AMARE ([18]; 250 g ai/ha): 90
- Post-emerge Herbicidal Activity ABUTH ([19]; 63 g ai/ha): 100
- Post-emerge Herbicidal Activity ABUTH ([19]; 250 g ai/ha): 100
- Post-emerge Herbicidal Activity CORN (crop damage) ([20]; 63 g ai/ha): 40
- Post-emerge Herbicidal Activity CORN (crop damage) ([20]; 250 g ai/ha): 60
- Post-emerge Herbicidal Activity RICE (crop damage) ([21]; 63 g ai/ha): 50
- Post-emerge Herbicidal Activity RICE (crop damage) ([21]; 250 g ai/ha): 70

SMILES: Cn1c(C(F)(F)F)cc(=O)n(-c2c(F)cc(Cl)c(OCC#N)c2NC(=O)C(F)(F)F)c1=O [2-11]
- Pre-emerge Herbicidal Activity AMARE (phytotoxicity rating, scale 0-100) ([1]; 63 g ai/ha): 30
- Pre-emerge Herbicidal Activity AMARE (phytotoxicity rating, scale 0-100) ([1]; 250 g ai/ha): 100
- Pre-emerge Herbicidal Activity ECHCG (phytotoxicity rating, scale 0-100) ([2]; 63 g ai/ha): 0
- Pre-emerge Herbicidal Activity ECHCG (phytotoxicity rating, scale 0-100) ([2]; 250 g ai/ha): 40
- Pre-emerge Herbicidal Activity SETVI (phytotoxicity rating, scale 0-100) ([3]; 63 g ai/ha): 0
- Pre-emerge Herbicidal Activity SETVI (phytotoxicity rating, scale 0-100) ([3]; 250 g ai/ha): 100
- Pre-emerge Herbicidal Activity IPOHE (phytotoxicity rating, scale 0-100) ([4]; 63 g ai/ha): 70
- Pre-emerge Herbicidal Activity IPOHE (phytotoxicity rating, scale 0-100) ([4]; 250 g ai/ha): 100
- Pre-emerge Herbicidal Activity SORHA (phytotoxicity rating, scale 0-100) ([5]; 63 g ai/ha): 0
- Pre-emerge Herbicidal Activity SORHA (phytotoxicity rating, scale 0-100) ([5]; 250 g ai/ha): 50
- Pre-emerge Herbicidal Activity CHEAL (phytotoxicity rating, scale 0-100) ([6]; 63 g ai/ha): 100
- Pre-emerge Herbicidal Activity CHEAL (phytotoxicity rating, scale 0-100) ([6]; 250 g ai/ha): 100
- Pre-emerge Herbicidal Activity DIGSA (phytotoxicity rating, scale 0-100) ([7]; 63 g ai/ha): 0
- Pre-emerge Herbicidal Activity DIGSA (phytotoxicity rating, scale 0-100) ([7]; 250 g ai/ha): 60
- Pre-emerge Herbicidal Activity CASOB (phytotoxicity rating, scale 0-100) ([8]; 63 g ai/ha): 0
- Pre-emerge Herbicidal Activity CASOB (phytotoxicity rating, scale 0-100) ([8]; 250 g ai/ha): 60
- Pre-emerge Herbicidal Activity ABUTH (phytotoxicity rating, scale 0-100) ([9]; 63 g ai/ha): 90
- Pre-emerge Herbicidal Activity ABUTH (phytotoxicity rating, scale 0-100) ([9]; 250 g ai/ha): 100
- Pre-emerge crop damage CORN (phytotoxicity rating, scale 0-100) ([10]; 63 g ai/ha): 0
- Pre-emerge crop damage CORN (phytotoxicity rating, scale 0-100) ([10]; 250 g ai/ha): 10
- Pre-emerge crop damage RICE (phytotoxicity rating, scale 0-100) ([11]; 63 g ai/ha): 10
- Pre-emerge crop damage RICE (phytotoxicity rating, scale 0-100) ([11]; 250 g ai/ha): 50
- Post-emerge Herbicidal Activity ECHCG ([12]; 63 g ai/ha): 0
- Post-emerge Herbicidal Activity ECHCG ([12]; 250 g ai/ha): 0
- Post-emerge Herbicidal Activity SETVI ([13]; 63 g ai/ha): 0
- Post-emerge Herbicidal Activity SETVI ([13]; 250 g ai/ha): 20
- Post-emerge Herbicidal Activity IPOHE ([14]; 63 g ai/ha): 50
- Post-emerge Herbicidal Activity IPOHE ([14]; 250 g ai/ha): 60
- Post-emerge Herbicidal Activity SORHA ([15]; 63 g ai/ha): 0
- Post-emerge Herbicidal Activity SORHA ([15]; 250 g ai/ha): 0
- Post-emerge Herbicidal Activity CHEAL ([16]; 63 g ai/ha): 40
- Post-emerge Herbicidal Activity CHEAL ([16]; 250 g ai/ha): 65
- Post-emerge Herbicidal Activity DIGSA ([17]; 63 g ai/ha): 0
- Post-emerge Herbicidal Activity DIGSA ([17]; 250 g ai/ha): 0
- Post-emerge Herbicidal Activity AMARE ([18]; 63 g ai/ha): 0
- Post-emerge Herbicidal Activity AMARE ([18]; 250 g ai/ha): 30
- Post-emerge Herbicidal Activity ABUTH ([19]; 63 g ai/ha): 80
- Post-emerge Herbicidal Activity ABUTH ([19]; 250 g ai/ha): 100
- Post-emerge Herbicidal Activity CORN (crop damage) ([20]; 63 g ai/ha): 5
- Post-emerge Herbicidal Activity CORN (crop damage) ([20]; 250 g ai/ha): 5
- Post-emerge Herbicidal Activity RICE (crop damage) ([21]; 63 g ai/ha): 0
- Post-emerge Herbicidal Activity RICE (crop damage) ([21]; 250 g ai/ha): 0
